The structures appear in SMILES notation.

What all share (format): cell-based, human
The subject of one test is T-47D. Put plainly: NCI screening panel, T-47D (Breast Cancer). The protocol:
(§1) Representative compounds of Formula I were screened using the National Cancer Institute (NCI) screening panel, which consists of a panel of human tumor cell lines, representing leukemia, melanoma, and cancers of the lung, colon, ovary, breast, prostate and renal system.
(§2) After 24 h, two plates of each cell line are fixed in situ with TCA, to represent a measurement of the cell population for each cell line at the time of drug addition (Tz). Experimental drugs are solubilised in dimethyl sulfoxide at 400-fold the desired final maximum test concentration and stored frozen prior to use. At the time of drug addition, an aliquot of frozen concentrate is thawed and diluted to twice the desired final maximum test concentration with complete medium containing 50 μg/mL gentamicin. Additional four, 10-fold or ½ log serial dilutions are made to provide a total of five drug concentrations plus control. Aliquots of 100 μl of these different drug dilutions are added to the appropriate microtiter wells already containing 100 μl of medium, resulting in the required final drug concentrations.
(§3) Following drug addition, the plates are incubated for an additional 48 h at 37° C., 5% CO2, 95% air, and 100% relative humidity. For adherent cells, the assay is terminated by the addition of cold TCA (trichloroacetic acid). Cells are fixed in situ by the gentle addition of 50 μl of cold 50% (w/v) TCA (final concentration, 10% TCA) and incubated for 60 minutes at 4° C. The supernatant is discarded, and the plates are washed five times with tap water and air dried. Sulforhodamine B (SRB) solution (100 μl) at 0.4% (w/v) in 1% acetic acid is added to each well, and plates are incubated for 10 minutes at room temperature. After staining, unbound dye is removed by washing five times with 1% acetic acid and the plates are air dried. Bound stain is subsequently solubilised with 10 mM trizma base, and the absorbance is read on an automated plate reader at a wavelength of 515 nm. For suspension cells, the methodology is the same except that the assay is terminated by fixing settled cells at the bottom of the wells by gently adding 50 μl of 80% TCA (final concentration, 16% TCA). Using the seven absorbance measurements [time zero, (Tz), control growth, (C), and test growth in the presence of drug at the five concentration levels (Ti)], the percentage growth is calculated at each of the drug concentrations levels. Percentage growth inhibition is calculated as: [(Ti−Tz)/(C−Tz)]×100 for concentrations for which Ti>/=Tz and [(Ti−Tz)/Tz]×100 for concentrations for which Ti<Tz.
(§4) Three dose response parameters are calculated for each experimental agent. Growth inhibition of 50% (GI50) is calculated from [(Ti−Tz)/(C−Tz)]×100=50, which is the drug concentration resulting in a 50% reduction in the net protein increase (as measured by SRB staining) in control cells during the drug incubation. The drug concentration resulting in total growth inhibition (TGI) is calculated from Ti=Tz. The LC50 (concentration of drug resulting in a 50% reduction in the measured protein at the end of the drug treatment as compared to that at the beginning) indicating a net loss of cells following treatment is calculated from [(Ti−Tz)/Tz]×100=−50. Values are calculated for each of these three parameters if the level of activity is reached. However, if the effect is not reached or is exceeded, the value for that parameter is expressed as greater or less than the maximum or minimum concentration tested.

For a further test, the system named is DU-145. Nature of the test: NCI screening panel, DU-145 (Prostate Cancer). The protocol:
as §1, §2, §3, §4

The test system of another test is KM12. Put plainly: NCI screening panel, KM12 (Colon Cancer). The protocol:
as §1, §2, §3, §4

A further test has as its system UACC-257. Nature of the test: NCI screening panel, UACC-257 (Melanoma). The protocol:
as §1, §2, §3, §4

The subject of a further test is A498. Put plainly: NCI screening panel, A498 (Renal Cancer). Here is the method: as §1, §2, §3, §4
In a further test the test system is LOX IMVI. Put plainly: NCI screening panel, LOX IMVI (Melanoma). The protocol: as §1, §2, §3, §4
A further test concerns SF-295. Nature of the test: NCI screening panel, SF-295 (CNS Cancer). Here is the method: as §1, §2, §3, §4

Take `CC(C)C[C@H](NC(=O)[C@H](Cc1ccccc1)NC(=O)[C@H](COC(F)F)NC(=O)[C@H](COC(F)F)NC(=O)CN1CCOCC1)C(=O)[C@@]1(C)CO1` [Example 11, (2S)-2-[[(2S)-3-(difluoromethoxy)-2-[[(2S)-3-(difluoromethoxy)-2-[(2-morpholinoacetyl)-amino]propanoyl]amino]propanoyl]amino]-N-[(1S)-3-methyl-1-[(2R)-2-methyloxirane-2-carbonyl]butyl]-3-phenyl-propanamide]: the Log10GI50 in the test with T-47D was −7.71; in the test on DU-145, −7.31; with KM12, −7.73; with UACC-257, −6.79; with A498, −7.64; in the test on LOX IMVI, −7.79. Moreover, the Log10GI50 with SF-295 was −5.96. The Log10TGI50 in the test with T-47D is on record as more than −4.00; in the test with DU-145, −5.94; with KM12, −7.40; in the test on UACC-257, −6.14; in the test with A498 it was −7.00; in the test on LOX IMVI it was −7.44. In the test with SF-295, this molecule had a Log10TGI50 of −5.56. Moreover, the Log10LC50 with DU-145 is given as more than −4.00; in the test on KM12 it was −7.07; in the test with UACC-257, more than −4.00; in the test with A498, −6.08; in the test with LOX IMVI it was −7.09; in the test on SF-295, −5.17.

For the molecule `CC(C)C[C@H](NC(=O)[C@H](COC(F)F)NC(=O)[C@H](COC(F)F)NC(=O)[C@H](COC(F)F)NC(=O)CN1CCOCC1)C(=O)[C@@]1(C)CO1` [Example 17, (2S)-3-(difluoromethoxy)-N-[(1S)-1-(difluoromethoxymethyl)-2-[[(1S)-1-(difluoro-methoxymethyl)-2-[[(1S)-3-methyl-1-[(2R)-2-methyloxirane-2-carbonyl]butyl]amino]-2-oxo-ethyl]amino]-2-oxo-ethyl]-2-[(2-mor-pholinoacetyl)amino]-propanamide], the Log10GI50 in the test with T-47D is listed as −7.10; in the test with DU-145 it was −7.07; with KM12, −7.34; in the test with UACC-257, −6.45; with A498, −6.87; in the test with LOX IMVI it was −7.36. In the test with SF-295, this molecule registered a Log10GI50 of −6.82. The Log10LC50 is reported as more than −4.00 in the test with T-47D; more than −4.00 with DU-145; −6.24 with KM12; more than −4.00 with UACC-257; −5.44 in the test on A498; −6.36 in the test with LOX IMVI. The Log10LC50 with SF-295 is −5.37. Also, the Log10TGI50 with T-47D is given as −6.33; with DU-145 it was −4.84; in the test with KM12, −6.73; in the test on UACC-257, −5.56; with A498, −6.22; with LOX IMVI, −6.81. Moreover, the Log10TGI50 in the test with SF-295 is −6.20.

For the origin of these results see patent publication US20150218212A1, “FLUORINATED EPOXYKETONE-BASED TETRAPEPTIDE COMPOUNDS AND USES THEREOF AS PROTEASOME INHIBITORS” (FLUORINOV PHARMA INC., priority 2012, published 2015).
